Experimental findings from patent publication US11845748B2, “Bicyclic pyridine N-oxide derivatives useful as a factor XIa inhibitors” (Janssen Pharmaceutica NV, priority 2021, dated 2023) are described below.

SMILES strings stand for the structures.

The target in one experiment is Factor XIa (Homo sapiens, UniProt P03951). As to the kind of experiment: Factor XIa inhibition assay utilizing a fluorophore-quencher pair peptide substrate (FLINT). The settings on record: kinetic reads at 5 min intervals over 30 min; 30 min preincubation; 5Fam-KLTRAETV-K5Tamra substrate; read-out: FXIa (KIN) IC50. The class given is biochemical. An excerpt:
Biological Example 1: Factor XIa Inhibition Assay Utilizing a Fluorophore-Quencher Pair Peptide Substrate
A fluorescence intensity (FLINT) based assay was used to monitor inhibition of Factor XIa. The peptide substrate, 5Fam-KLTRAETV-K5Tamra (purchased from New England Peptide) was chosen based on the […]. Conversion of zymogen […]. The custom peptide used in this assay was based on the Arg146 cleavage site of FXI. The peptide substrate was designed with a fluorophore-quencher pair, where the fluorescence is quenched until FXIa cleaves the 8-mer peptide after the Arg residue. The substrate KM was fit to a substrate inhibition model whereby kcat=0.86 s^−1, KM=12.4 μM, Ki=61.6 μM with an enzymatic efficiency, and kcat/KM=69523 M^−1s^−1.
The Factor XIa FLINT assay was used with the following 5Fam-KLTRAETV-K5Tamra assay buffer: 50 mM Tris, pH 7.5, 100 mM NaCl, 5 mM CaCl2, 0.1 mg/mL BSA, 0.03% CHAPS. Assay buffer was prepared by mixing all ingredients fresh. 5Fam-KLTRAETV-K5Tamra peptide substrate was first prepared at 10 mM in 100% DMSO, then diluted to 3 mM in 100% DMSO. Assay buffer was then added directly to the 3 mM stock of substrate to prepare the 30 μM 2× working concentration (15 μM final concentration). The 2× Factor XIa stock solution was prepared by diluting 6.562 μM stock in 1× assay buffer for a 200 pM working stock solution (100 pM final concentration).
Test compound(s) were run in an 11-point, 3-fold serial dilution with a final top compound concentration of 100 nM. Final DMSO in assay was 2%. FXIa was preincubated with compound for 30-minutes and then substrate was added to initiate the reaction. The assay was run with either end point (EP) reads at 30 min or kinetic (KIN) reads at 5 min intervals over 30 minutes. The time course was linear using 100 μM FXIa greater than 30 minutes. More specifically, the assay was run as follows: • 100 nL of 0.01 mM test compound was dispensed into black 384-well non-binding Greiner BioOne 784900 plate for 0.1 μM final concentration; • 5 μL of 1× assay buffer was dispensed to column 24 (low control) and 5 μL 2× Factor XIa solution was dispensed to columns 1-23 (column 23 high control); • the plate was centrifuged with a “cover” plate at 500 rpm for 1 min the plate was pre-incubated for 30 minutes at room temperature with plate covered; • 5 μL of 2× 5Fam-KLTRAETV-K5Tamra peptide substrate was dispensed into the entire plate, columns 1-24; • the plate was centrifuged with a “cover” plate at 500 rpm for 1 min; • the plate was read monitoring fluorescence intensity on the BMG PHERAStar at room temperature, using fluorescence module 485 nm/520 nm.
Percent inhibition (IC50) curves were generated per compound tested, and data was analyzed using a 4-parameter logistic fit using GeneData Screener. The relative fluorescence unit (RFU) values were normalized to percent inhibition using the following equation: % inhibition=((HC−LC)−(compound−LC)/(HC−LC))*100 where LC—low control=mean signal of no Factor XIa or 100% inhibition of Factor XIa; HC—high control=mean signal of Factor XIa+5Fam-KLTRAETV-K5Tamra peptide substrate with DMSO only.
(§1) An 11-point dose response curve for the test compound(s) was generated using GENDATA to determine IC50 value based on the following equation: Y=Bottom+(Top−Bottom)/(1+10^((log IC50−X)*HillSlope))
where Y is the % inhibition in the presence of X inhibitor concentration, Top=high control=mean signal of Factor XIa+5Fam-KLTRAETV-K5Tamra peptide substrate with DMSO only; Bottom=low control−mean signal of no Factor XIa or 100% inhibition of Factor XIa; HillSlope—Hill coefficient; and IC50=concentration of compound with 50% inhibition in relation to top/high control. […]

For the next experiment, the target named is human plasma kallikrein (Homo sapiens, UniProt P03952). Briefly: Kallikrein inhibition assay utilizing a quenched AMC peptide substrate (FLINT). The format is biochemical. Particulars: kinetic reads at 5 min intervals over 30 min; 30 min preincubation; Z-Gly-Pro-Arg-AMC substrate; read-out: Kallikrein (KIN) IC50. Here is the method:
Biological Example 2: Kallikrein Inhibition Assay Utilizing a Quenched AMC Peptide Substrate
A fluorescence intensity (FLINT) based assay was used to monitor inhibition of human plasma kallikrein. The peptide substrate, Z-Gly-Pro-Arg-AMC (Purchased from Bachem; Catalog #I-1150) was chosen based on its relatively low KM for kallikrein which enables running the assay at lower substrate concentrations to control background fluorescence. The kinetic parameters for this substrate were determined by fitting titration data to the Michaelis-Menten equation yielding a KM=40 μM, kcat=0.76 s^−1, and kcat/KM=18932 M^−1s^−1.
The Kallikrein FLINT assay was used with the following Z-Gly-Pro-Arg-AMC assay buffer: 50 mM Tris, pH 7.5, 100 mM NaCl, 5 mM CaCl2, 0.1 mg/mL BSA, 0.03% CHAPS. Assay buffer was prepared by mixing all ingredients fresh. 2× Z-Gly-Pro-Arg-AMC peptide substrate was prepared by diluting 10 mM stock into 1× assay buffer for a 100 μM working concentration (50 μM final concentration). The 2× kallikrein stock solution was prepared by diluting 14.76 μM stock in 1× assay buffer for a 4 nM working stock solution (2 nM final concentration).
Test compound(s) were run in an 11-point, 3-fold serial dilution with a final top compound concentration of 1 μM. Final DMSO in assay was 2%. Plasma kallikrein was pre-incubated for 30-minute with compound and then 50 μM substrate was added to initiate the reaction. The assay was run with kinetic (KIN) reads at 5 min intervals over 30 minutes. The time course was linear using 2 nM kallikrein greater than 30 minutes. More specifically, the assay was run as follows: • 100 nL of 0.1 mM test compound was dispensed into black 384-well non-binding Greiner BioOne 784900 plate for 1 μM final concentration; • 5 μL of 1× assay buffer was dispensed to columns 24 (low control) and 5 μL 2× human kallikrein enzyme solution was dispensed to columns 1-23 (column 23 high control); • the plate was centrifuged with a “cover” plate at 500 rpm for 1 min the plate was pre-incubated for 30 minutes at room temperature with plate covered; • 5 μL of 2× Z-Gly-Pro-Arg-AMC peptide substrate was dispensed into the entire plate, columns 1-24; • the plate was centrifuged with a “cover” plate at 500 rpm for 1 min; • the plate was read monitoring fluorescence intensity on the BMG PHERAStar at room temperature, using fluorescence module 340 nm/440 nm.
Percent inhibition (IC50) curves were generated per compound tested, and data was analyzed using a 4-parameter logistic fit using GeneData Screener. The relative fluorescence unit (RFU) values were normalized to percent inhibition using the following equation: % inhibition=((HC−LC)−(compound−LC)/(HC−LC))*100
where LC—low control=mean signal of […] 100% inhibition of human kallikrein enzyme; HC—high control=mean signal of […]+Z-Gly-Pro-Arg-AMC peptide substrate with DMSO only.
as §1
where Y is the % inhibition in the presence of X inhibitor concentration, Top=high control=mean signal of human kallikrein enzyme+Z-Gly-Pro-Arg-AMC peptide substrate with DMSO only; Bottom=low control−mean signal of no human kallikrein enzyme or 100% inhibition of human kallikrein enzyme; HillSlope—Hill coefficient; and IC50=concentration of compound with 50% inhibition in relation to top/high control.
Representative compounds of formula (I) of the present invention were tested according to the procedure described in Biological Example 1 and Biological Example 2 above, with results as listed in Table 2, below. Results listed in the (ER) column were measured using endpoint reads where a single fluorescence reading was measured for each well at a 30 min timepoint. […]

human plasma kallikrein, sequence (P03952 391-638 limits assumed): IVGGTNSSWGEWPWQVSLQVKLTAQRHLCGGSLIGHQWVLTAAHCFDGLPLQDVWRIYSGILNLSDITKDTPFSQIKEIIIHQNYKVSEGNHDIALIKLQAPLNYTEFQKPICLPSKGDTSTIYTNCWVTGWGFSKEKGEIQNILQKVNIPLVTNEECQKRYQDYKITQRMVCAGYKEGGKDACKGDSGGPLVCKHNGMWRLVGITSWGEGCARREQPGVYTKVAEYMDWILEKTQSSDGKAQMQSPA
human plasma kallikrein, sequence (P03952 20-390 partner limits assumed): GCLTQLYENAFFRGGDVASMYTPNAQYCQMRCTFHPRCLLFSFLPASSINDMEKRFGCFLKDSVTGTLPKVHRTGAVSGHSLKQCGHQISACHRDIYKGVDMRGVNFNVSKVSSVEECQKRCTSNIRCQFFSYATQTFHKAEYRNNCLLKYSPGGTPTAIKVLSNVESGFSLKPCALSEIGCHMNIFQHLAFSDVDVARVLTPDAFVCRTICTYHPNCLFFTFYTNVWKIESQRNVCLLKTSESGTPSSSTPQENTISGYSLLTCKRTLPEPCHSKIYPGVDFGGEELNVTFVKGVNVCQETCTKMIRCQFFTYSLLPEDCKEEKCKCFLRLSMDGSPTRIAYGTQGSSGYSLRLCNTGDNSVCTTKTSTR
Factor XIa, sequence (P03951 388-625 limits assumed): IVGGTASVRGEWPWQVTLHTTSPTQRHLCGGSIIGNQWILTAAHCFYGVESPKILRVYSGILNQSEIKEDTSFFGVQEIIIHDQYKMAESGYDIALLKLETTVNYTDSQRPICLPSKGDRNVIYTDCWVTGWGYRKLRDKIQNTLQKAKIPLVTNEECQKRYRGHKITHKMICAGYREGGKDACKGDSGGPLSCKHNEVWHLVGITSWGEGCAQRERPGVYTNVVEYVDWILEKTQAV
Factor XIa, sequence (P03951 19-387 partner limits assumed): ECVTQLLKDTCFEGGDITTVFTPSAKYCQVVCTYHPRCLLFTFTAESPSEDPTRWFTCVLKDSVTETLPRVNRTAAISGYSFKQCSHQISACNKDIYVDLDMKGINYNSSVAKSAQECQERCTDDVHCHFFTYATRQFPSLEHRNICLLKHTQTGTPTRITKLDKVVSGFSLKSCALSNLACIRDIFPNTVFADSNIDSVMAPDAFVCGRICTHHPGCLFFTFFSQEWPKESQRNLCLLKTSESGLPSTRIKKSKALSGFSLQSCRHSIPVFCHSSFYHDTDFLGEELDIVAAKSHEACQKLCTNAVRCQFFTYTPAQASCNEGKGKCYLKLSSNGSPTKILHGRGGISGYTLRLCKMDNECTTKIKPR

For the compound `NC(=O)c1ccc(-c2cnn(C3CCc4cc(-c5c(-n6cc(C(F)(F)F)nn6)ccc(Cl)c5F)c[n+]([O-])c43)c2)cc1F` (single isomer, unassigned) [ID No. 27, (R*)7-(4-(4-Carbamoyl-3-fluorophenyl)-1H-pyrazol-1-yl)-3-(3-chloro-2-fluoro-6-(4-(trifluoromethyl)-1H-1,2,3-triazol-1-yl)phenyl)-6,7-dihydro-5H-cyclopenta[b]pyridine 1-oxide], the half-maximal inhibitory concentration (IC50) is more than 100 nM on Factor XIa and 240 nM at human plasma kallikrein.

Regarding `NC(=O)c1ccc(-c2cnn(C3CCc4cc(-c5c(-n6cc(C(F)(F)F)nn6)ccc(Cl)c5F)c[n+]([O-])c43)c2)cc1F` (single isomer, unassigned) [ID No. 28, (S*)-7-(4-(4-Carbamoyl-3-fluorophenyl)-1H-pyrazol-1-yl)-3-(3-chloro-2-fluoro-6-(4-(trifluoromethyl)-1H-1,2,3-triazol-1-yl)phenyl)-6,7-dihydro-5H-cyclopenta[b]pyridine 1-oxide], the results for the IC50 on Factor XIa and at human plasma kallikrein were 37 nM and 67 nM, respectively.

On to `Nc1ccc(-c2cnn(C3CCCc4cc(-c5c(-n6cnnn6)ccc(Cl)c5F)c[n+]([O-])c43)c2)c(F)n1` (single isomer, unassigned) [ID No. 31, (R*)-8-(4-(6-Amino-2-fluoropyridin-3-yl)-1H-pyrazol-1-yl)-3-(3-chloro-2-fluoro-6-(1H-tetrazol-1-yl)phenyl)-5,6,7,8-tetrahydroquinoline 1-oxide], for which the IC50 on Factor XIa came out at 40 nM; at human plasma kallikrein, 987 nM.

In the case of `Nc1ccc(-c2cnn(C3CCCc4cc(-c5c(-n6cnnn6)ccc(Cl)c5F)c[n+]([O-])c43)c2)c(F)n1` (single isomer, unassigned) [ID No. 32, (S*)-8-(4-(6-Amino-2-fluoropyridin-3-yl)-1H-pyrazol-1-yl)-3-(3-chloro-2-fluoro-6-(1H-tetrazol-1-yl)phenyl)-5,6,7,8-tetrahydroquinoline 1-oxide], the IC50 at Factor XIa and on human plasma kallikrein was more than 10000 nM throughout.

Consider `COC(=O)Nc1ccc(-c2cn(C3CCc4cc(-c5c(-n6cnnn6)ccc(Cl)c5F)c[n+]([O-])c43)cn2)cc1` (centres unmarked) [ID No. 2, 3-(3-Chloro-2-fluoro-6-(1H-tetrazol-1-yl)phenyl)-7-(4-(4-((methoxycarbonyl)amino)phenyl)-1H-imidazol-1-yl)-6,7-dihydro-5H-cyclopenta[b]pyridine 1-oxide], for which the IC50 was determined as 24 nM at Factor XIa and 461 nM on human plasma kallikrein.

For `Cn1nncc1-c1cnn([C@H]2CCc3cc(-c4c(-n5cnnn5)ccc(Cl)c4F)c[n+]([O-])c32)c1` [ID No. 25, (S)-3-(3-Chloro-2-fluoro-6-(1H-tetrazol-1-yl)phenyl)-7-(4-(1-methyl-1H-1,2,3-triazol-5-yl)-1H-pyrazol-1-yl)-6,7-dihydro-5H-cyclopenta[b]pyridine 1-oxide], the IC50 at Factor XIa and at human plasma kallikrein was more than 10000 nM each time.

In the case of `Cn1nncc1-c1cnn([C@@H]2CCc3cc(-c4c(-n5cnnn5)ccc(Cl)c4F)c[n+]([O-])c32)c1` [ID No. 26, (R)-3-(3-Chloro-2-fluoro-6-(1H-tetrazol-1-yl)phenyl)-7-(4-(1-methyl-1H-1,2,3-triazol-5-yl)-1H-pyrazol-1-yl)-6,7-dihydro-5H-cyclopenta[b]pyridine 1-oxide], the half-inhibitory concentration (IC50) at Factor XIa came out at 42 nM; at human plasma kallikrein, 4040 nM.

Broadly, the IC50 is the concentration that inhibits the measured activity by half.
